This is an account of results in the supplement of paper PMC10307832.

Experiment in all cases: relative viability (nuclei count vs DMSO), 5 days (fraction); higher = more cells survive
Compound in assay [1]: C1=CC=C2C(=C1)C=CC(=C2SSC3=C(C=CC4=CC=CC=C43)O)O [IPA-3] + CS(=O)(=O)N1CCN(Cc2cc3nc(-c4cccc5[nH]ncc45)nc(N4CCOCC4)c3s2)CC1 [Pictilisib] (partner 1 µM)
Summed up: (§1)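 Five library-drug doses in √10 steps were combined with a fixed anchor-drug dose, or a single drug was given alone, by pin tool to lung cancer cell lines in 1536-well plates the day after seeding. Nuclei were stained and counted after 5 days. Relative viability is the nuclei count in treated wells over that in vehicle wells, taken as the median of duplicate plates.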

Compound in assay [2]: Cn1c(Nc2ccc(C(F)(F)F)cc2)nc2cc(Oc3ccnc(-c4ncc(C(F)(F)F)[nH]4)c3)ccc21 [RAF265] + CC(=O)Nc1cccc(-n2c(=O)n(C3CC3)c(=O)c3c(Nc4ccc(I)cc4F)n(C)c(=O)c(C)c32)c1 [Trametinib] (partner 0.02 µM)
The method in brief:
as §1

Compound in assay [3]: Cn1c(Nc2ccc(C(F)(F)F)cc2)nc2cc(Oc3ccnc(-c4ncc(C(F)(F)F)[nH]4)c3)ccc21 [RAF265] + CC(=O)c1c(C)c2cnc(Nc3ccc(N4CCNCC4)cn3)nc2n(C2CCCC2)c1=O [Palbociclib] (partner 0.5 µM)
Summed up:
as §1

Compound in assay [4]: Cn1c(Nc2ccc(C(F)(F)F)cc2)nc2cc(Oc3ccnc(-c4ncc(C(F)(F)F)[nH]4)c3)ccc21 [RAF265] + NC(=O)Nc1cc(-c2cccc(F)c2)sc1C(=O)N[C@H]1CCCNC1 [AZD7762] (partner 0.2 µM)
The method in brief:
as §1

Consider EKVX, for which the relative viability in assay [1] (first compound 0.2 µM) stood at 0.62; in assay [1] (first compound 0.6325 µM) it was 0.421; in assay [1] (first compound 2 µM), 0.499; in assay [1] (first compound 6.325 µM) it was 0.484; in assay [1] (first compound 20 µM), 0.575; in assay [2] (first compound 0.01 µM), 0.387. Moreover, the relative viability stood at 0.385 in assay [2] (first compound 0.03162 µM); 0.417 in assay [2] (first compound 0.1 µM); 0.217 in assay [2] (first compound 0.3162 µM); 0.277 in assay [2] (first compound 1 µM); 0.429 in assay [3] (first compound 0.01 µM); 0.405 in assay [3] (first compound 0.03162 µM). Also, the relative viability was 0.416 in assay [3] (first compound 0.1 µM); 0.249 in assay [3] (first compound 0.3162 µM); 0.276 in assay [3] (first compound 1 µM); 0.685 in assay [4] (first compound 0.01 µM); 0.777 in assay [4] (first compound 0.03162 µM); 0.706 in assay [4] (first compound 0.1 µM). Also, the relative viability is 0.412 in assay [4] (first compound 0.3162 µM) and 0.298 in assay [4] (first compound 1 µM).
In the case of EMC-BAC-2, the relative viability in assay [1] (first compound 0.2 µM) is 0.552; in assay [1] (first compound 0.6325 µM), 0.53; in assay [1] (first compound 2 µM), 0.531; in assay [1] (first compound 6.325 µM), 0.529; in assay [1] (first compound 20 µM), 0.636; in assay [2] (first compound 0.01 µM) it was 0.977. Moreover, the relative viability worked out at 0.857 in assay [2] (first compound 0.03162 µM); 0.85 in assay [2] (first compound 0.1 µM); 0.62 in assay [2] (first compound 0.3162 µM); 0.313 in assay [2] (first compound 1 µM); 0.533 in assay [3] (first compound 0.01 µM); 0.431 in assay [3] (first compound 0.03162 µM). For the same cell line, the relative viability was found to be 0.373 in assay [3] (first compound 0.1 µM); 0.345 in assay [3] (first compound 0.3162 µM); 0.176 in assay [3] (first compound 1 µM); 1.09 in assay [4] (first compound 0.01 µM); 1.03 in assay [4] (first compound 0.03162 µM); 0.675 in assay [4] (first compound 0.1 µM). Moreover, the relative viability in assay [4] (first compound 0.3162 µM) was 0.724; in assay [4] (first compound 1 µM), 0.486.
With EPLC-272H, the relative viability in assay [1] (first compound 0.2 µM) was 0.309; in assay [1] (first compound 0.6325 µM), 0.338; in assay [1] (first compound 2 µM), 0.273; in assay [1] (first compound 6.325 µM) it was 0.343; in assay [1] (first compound 20 µM) it was 0.401; in assay [2] (first compound 0.01 µM) it was 0.28. For the same cell line, the relative viability is 0.287 in assay [2] (first compound 0.03162 µM); 0.3 in assay [2] (first compound 0.1 µM); 0.204 in assay [2] (first compound 0.3162 µM); 0.205 in assay [2] (first compound 1 µM); 0.334 in assay [3] (first compound 0.01 µM); 0.291 in assay [3] (first compound 0.03162 µM). For the same cell line, the relative viability stood at 0.352 in assay [3] (first compound 0.1 µM); 0.287 in assay [3] (first compound 0.3162 µM); 0.269 in assay [3] (first compound 1 µM); 0.213 in assay [4] (first compound 0.01 µM); 0.181 in assay [4] (first compound 0.03162 µM); 0.223 in assay [4] (first compound 0.1 µM). For the same cell line, the relative viability turned out to be 0.161 in assay [4] (first compound 0.3162 µM) and 0.15 in assay [4] (first compound 1 µM).
On to H3255, for which the relative viability in assay [1] (first compound 0.2 µM) stood at 0.454; in assay [1] (first compound 0.6325 µM) it was 0.465; in assay [1] (first compound 2 µM) it was 0.44; in assay [1] (first compound 6.325 µM) it was 0.573; in assay [1] (first compound 20 µM), 0.558; in assay [2] (first compound 0.01 µM), 0.719. The relative viability stood at 0.585 in assay [2] (first compound 0.03162 µM); 0.657 in assay [2] (first compound 0.1 µM); 0.271 in assay [2] (first compound 0.3162 µM); 0.458 in assay [2] (first compound 1 µM); 0.323 in assay [3] (first compound 0.01 µM); 0.316 in assay [3] (first compound 0.03162 µM). Besides, the relative viability in assay [3] (first compound 0.1 µM) turned out to be 0.321; in assay [3] (first compound 1 µM) it was 0.331; in assay [4] (first compound 0.01 µM) it was 0.931; in assay [4] (first compound 0.03162 µM), 1.01; in assay [4] (first compound 0.1 µM), 0.877; in assay [4] (first compound 1 µM) it was 0.623.
